Blank lines part the entries; values can stand above or below the molecule they belong to.
How the values were obtained:
[1] = target: T1, RhoD/plexin B2-RBD complex (Homo sapiens, UniProt O00212, Q75L); experiment: X-ray crystal structure, […] Å; conditions: Mg2+; GTP-binding site of RhoD; RhoD loaded by EDTA exchange; complex with plexin B2 RBD
T1 construct: human RhoD 8-194 Q75L (catalytically dead), His6-tag removed by 3C protease, E. coli BL21(DE3); mouse plexin B2 intracellular region 1274-1842, tag removed, E. coli ArcticExpress(DE3), degraded in drops to RBD (1463-1565, domain-swapped dimer); with Plexin-B2 (Mus musculus)
T1 sequence (O00212 8-194 Q75L): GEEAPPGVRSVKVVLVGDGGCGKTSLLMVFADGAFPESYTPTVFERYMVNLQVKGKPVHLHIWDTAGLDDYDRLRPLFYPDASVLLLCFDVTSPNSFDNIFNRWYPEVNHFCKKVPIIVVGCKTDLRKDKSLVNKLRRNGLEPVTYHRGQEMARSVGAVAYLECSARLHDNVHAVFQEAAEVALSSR
T1 sequence (B2RXS4 1463-1565 partner): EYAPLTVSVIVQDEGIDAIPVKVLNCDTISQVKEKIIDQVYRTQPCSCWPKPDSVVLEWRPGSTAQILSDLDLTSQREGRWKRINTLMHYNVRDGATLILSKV

[2] = target: T2, human RhoD (residues 8-194) with the Q75L mutation, bound to GMP-PNP (human, UniProt O00212 8-194, Q75L); experiment: crystal structure; plexin B2 (1274-1842) and GMP-PNP-loaded RhoD mixed at 1:1 molar ratio, 6 mg/mL; crystals grown for over a month at 20 C in 0.2 M MgCl2, 22% PEG3350, 100 mM MIB pH 6.8; molecular replacement, 3.1 A; two RhoD and two RBD in the asymmetric unit; conditions: both partners purified
T2 construct: Loaded with the GTP analogue GMP-PNP and Mg2+ before crystallization; His6 tag removed with human rhinovirus 3C protease; also called GMP-PNP-loaded RhoD; source: E. coli BL21 (DE3), purified (HisTrap, anion exchange, Superdex 75); not shown: His6, N-terminal, cleaved
T2 sequence (looked up): T1 sequence (O00212 8-194 Q75L)

Molecule: Nc1nc2c(ncn2[C@@H]2O[C@H](COP(=O)(O)OP(=O)(O)NP(=O)(O)O)[C@@H](O)[C@H]2O)c(=O)[nH]1 [GMP-PNP, guanosine 5′-[β,γ-imido]triphosphate]
- X-ray crystal structure, 3.1 Å [1]: complex of mouse plexin B2 and human RhoD bound to the GTP analogue GMP-PNP

- binding result [2]: binds
B1: mouse plexin B2 RBD (Rho-GTPase-binding domain), as found in the crystal (domain or fragment, UniProt B2RXS4 1463-1565, looked up)
chain: T1 sequence (B2RXS4 1463-1565 partner)
notes: Plexin B2, mouse; Expressed as the intracellular region without the juxtamembrane region (residues 1274-1842); it degraded during crystallization and the crystal held only the RBD, built as residues 1463-1509 and 1510-1565; The range is that of the residues modelled in the structure; In the crystal two RBD chains form a domain-swapped dimer (swap between residues 1509 and 1510), which the authors …

— paper PMC8219378, “A putative structural mechanism underlying the antithetic effect of homologous RND1 and RhoD GTPases in mammalian plexin regulation” (eLife, 2021)
